Reference: patent US20030040485A1, “alpha/beta-adrenoceptors blockers and angiotensin converting enzyme inhibitors derived from hydroxyphenyl carboxylic acid and alcohol” (priority 2001, published 2003)

Assays:
[1] = biological target: β1-adrenoceptor (left atrium) (Rattus norvegicus, UniProt P18090); test: β1-adrenoceptor antagonism, left atrium, pA2; details: Schild plot, mean ± SEM of six to eight experiments
[2] = biological target: T1, angiotensin converting enzyme (ACE) (Rattus norvegicus, UniProt P47820); test: ACE activity value on tissue (rat lung membrane, Hip-His-Leu, fluorometric); assay type: biochemical; details: mean of three samples
T1 construct: Centrifuged 250-300 mg lung tissue; from tissue; host or cells: rat lung membrane fraction
T1 sequence (P47820 36-1313): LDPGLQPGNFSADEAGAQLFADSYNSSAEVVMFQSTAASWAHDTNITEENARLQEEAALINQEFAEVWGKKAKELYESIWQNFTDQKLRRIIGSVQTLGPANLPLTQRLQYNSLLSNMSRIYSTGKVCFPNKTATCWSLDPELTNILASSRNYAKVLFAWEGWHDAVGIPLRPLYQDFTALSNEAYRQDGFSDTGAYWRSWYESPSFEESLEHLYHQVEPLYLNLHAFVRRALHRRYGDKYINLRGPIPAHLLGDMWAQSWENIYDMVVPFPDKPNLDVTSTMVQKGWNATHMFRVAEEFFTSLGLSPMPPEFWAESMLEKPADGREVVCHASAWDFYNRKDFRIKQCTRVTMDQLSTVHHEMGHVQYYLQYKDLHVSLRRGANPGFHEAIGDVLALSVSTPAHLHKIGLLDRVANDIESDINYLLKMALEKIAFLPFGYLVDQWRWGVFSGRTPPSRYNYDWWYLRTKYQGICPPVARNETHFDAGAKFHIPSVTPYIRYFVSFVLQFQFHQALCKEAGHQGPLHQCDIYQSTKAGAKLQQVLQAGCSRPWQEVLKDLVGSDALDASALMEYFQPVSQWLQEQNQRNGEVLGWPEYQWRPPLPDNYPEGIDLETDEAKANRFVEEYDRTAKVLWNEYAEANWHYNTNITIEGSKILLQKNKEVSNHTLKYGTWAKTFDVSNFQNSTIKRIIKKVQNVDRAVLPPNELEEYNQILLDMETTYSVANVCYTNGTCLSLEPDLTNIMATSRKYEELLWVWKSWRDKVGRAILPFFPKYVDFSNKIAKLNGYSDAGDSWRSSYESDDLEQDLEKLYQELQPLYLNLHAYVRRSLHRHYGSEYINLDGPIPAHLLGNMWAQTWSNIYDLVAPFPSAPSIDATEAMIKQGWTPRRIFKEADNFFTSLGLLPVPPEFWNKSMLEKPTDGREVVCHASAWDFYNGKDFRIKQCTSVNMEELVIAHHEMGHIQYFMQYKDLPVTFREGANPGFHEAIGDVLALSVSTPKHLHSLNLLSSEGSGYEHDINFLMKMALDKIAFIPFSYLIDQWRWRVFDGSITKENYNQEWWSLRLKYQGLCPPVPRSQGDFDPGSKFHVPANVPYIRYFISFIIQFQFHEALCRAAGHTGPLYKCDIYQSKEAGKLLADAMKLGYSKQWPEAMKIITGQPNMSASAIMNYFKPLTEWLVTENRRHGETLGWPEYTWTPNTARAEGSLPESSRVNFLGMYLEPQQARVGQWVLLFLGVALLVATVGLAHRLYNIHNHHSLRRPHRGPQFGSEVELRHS
Experimental: Centrifuged 250-300 mg lung tissue, 3 ml extracted liquid (10 mmol/L HEPES, 125 mmol/L NaCl, pH7.4) under 12000 g for 20 minutes at 4° C. by Teflon-glass homogenizer, the cell membrane was obtained. The 3 ml homogenized liquid was added into twice, before and after centrifuged. Then the Lowry's method was adopted to determine the protein content in the membrane. Mixing 15 minute of liquid and 30 mmol/L Hip-His-Leu solution at 37° C. Fluorometric was used to determine the Hippurate content. test compounds (10^−8M, 10^−7M, 10^−6M) dissolved in PBS normal saline and used as control group. Then ACE activity inhibition rate was determined.

[3] = system: α1-adrenoceptor (aorta); test: α-adrenoceptor antagonism, isolated rat aorta, pA2 vs norepinephrine; design: species or system Wistar rat; details: Schild plot, mean ± SEM of six to eight experiments
Experimental: Vascular α-adrenoceptor blocking activity was evaluated in the Wistar rat aorta preparation. Isolated rat aorta preparations were mounted in organ bath and suspended in Krebs solution at 37° C. […] or 75 mM KCl was added to the bath medium after a control concentration-response curve to norepinephrine had been obtained. The tissue was exposed to test compounds for 30 min before rechallenging with norepinephrine. Inhibitions were expressed as percentages of the maximum contraction obtained by the challenge of the tissues with norepinephrine. The 70 mM NaCl on 75 mM KCl solution may to replace with equimolar KCl, if necessary.
The methods published by Huang Y C. et. al. in J Cardiovasc Pharmacol.34, pp.10-20 (1999) and Drug Devel Res. 47, 77-89 (1999). Through referenced and modified method to evaluate, test compounds whether have α1-adrenergic and sertoninergic effect.
Isolated Wistar rat aorta preparations were mounted in organ bath and suspended in Krebs solution (NaCl, 118 mM, KCl, 4.8 mM; CaCl,2.5 mM; MgSO4,1.2 mM; K2PO4,1.2 Mm; […] Mm; glucose, 11 mM) at 37° C. under 1 g resting tension.
Upon balancing for 60 minutes, 10^−10-10^−4 M norepinephrine is administered directly from low concentration to high using 0.5 log unit to gradually increase until the maximum reaction is reached, and this act as the control unit. Then different concentrations of the synthetic testing compounds, 10^−7 M, 10^−6 M, or 10^−5M, are used, and upon 30 minutes of reaction, norepinephrine is used again to complete the cumulative dose. The EC50 value of blocking […] may be obtained from observation of the suppressing effects caused by different concentrations of the synthetic testing compound.
The equation is as follows: […]

β1-adrenoceptor (left atrium), sequence (P18090 whole entry): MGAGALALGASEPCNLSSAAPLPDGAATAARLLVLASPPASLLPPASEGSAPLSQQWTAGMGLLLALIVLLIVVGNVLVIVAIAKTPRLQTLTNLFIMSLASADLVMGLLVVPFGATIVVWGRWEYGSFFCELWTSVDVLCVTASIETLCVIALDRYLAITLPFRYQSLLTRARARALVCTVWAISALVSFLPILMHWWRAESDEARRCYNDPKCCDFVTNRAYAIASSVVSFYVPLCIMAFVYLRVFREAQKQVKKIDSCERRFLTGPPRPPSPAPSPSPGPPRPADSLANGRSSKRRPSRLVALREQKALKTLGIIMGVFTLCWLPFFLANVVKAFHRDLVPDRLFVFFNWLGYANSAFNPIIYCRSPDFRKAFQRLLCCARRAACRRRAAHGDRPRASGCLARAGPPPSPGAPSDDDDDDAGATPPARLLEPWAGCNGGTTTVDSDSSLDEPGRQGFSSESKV

| Structure (SMILES) | β1 pA2 value, Left atrium [1] | Inhibitory activity of ACE, In Rat lung ([2]; 10^−6M) [%] | Inhibitory activity of ACE, In Rat lung ([2]; 10^−7M) [%] | Inhibitory activity of ACE, In Rat lung ([2]; 10^−8M) [%] | α1 pA2 value, Aorta [3] |
| --- | --- | --- | --- | --- | --- |
| CCOC(=O)C(CCc1ccc(OCC(O)CNCCOc2ccccc2OC)cc1)NC(C)C(=O)N1CCCC1C(=O)O (mixture of isomers) [compound 6, Labetapril] | 5.31 | 84 | 72 | 33 | 6.93 |
| CCOC(=O)C(CCc1ccccc1)NC(C)C(=O)N1CCCC1C(=O)OCc1ccc(OCC(O)CNC(C)(C)C)c(OC)c1 (stereo not drawn) [compound 7, Vanynolpril] | 5.78 | 81 | 68 | 31 | – |
